IC50 data for 27 molecules are collected here from patent publication US20170334899A1, “AMINO-SUBSTITUTED ISOTHIAZOLES” (Bayer Pharma Aktiengesellschaft, priority 2014, published 2017).

A value given as a limit tells only on which side of the number the result lay.

T1 sequence (O43683 704-1085): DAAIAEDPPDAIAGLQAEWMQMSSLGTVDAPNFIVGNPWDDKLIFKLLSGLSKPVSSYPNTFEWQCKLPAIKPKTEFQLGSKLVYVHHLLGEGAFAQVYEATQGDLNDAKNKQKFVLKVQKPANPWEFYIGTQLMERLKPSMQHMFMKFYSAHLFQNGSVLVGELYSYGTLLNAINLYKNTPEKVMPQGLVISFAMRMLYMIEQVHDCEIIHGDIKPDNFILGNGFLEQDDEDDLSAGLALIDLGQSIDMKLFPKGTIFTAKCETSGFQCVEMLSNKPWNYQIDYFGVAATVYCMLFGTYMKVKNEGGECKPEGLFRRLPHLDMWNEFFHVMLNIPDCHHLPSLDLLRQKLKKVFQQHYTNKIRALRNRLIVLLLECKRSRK

This experiment has as its target T1, catalytic domain of human Bub1 (amino acids 704-1085) (Homo sapiens, UniProt O43683).
T1 construct: catalytic domain of human Bub1 (amino acids 704-1085); His6 (N); made in house; host or cells: insect cells (Hi5)
The experiment in a line: Bub1 kinase assay (TR-FRET). To be noted: 10 μM ATP, avg, read-out: Bub1 avg (IC50 [mol/l]). Type of experiment: biochemical. Put shortly: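 Readout is the 665/620 nm TR-FRET ratio from anti-phosphoserine antibody, Eu-labelled anti-mouse IgG and streptavidin-XL665, scaled between no-enzyme and uninhibited controls. Reaction: 1 μM biotinylated peptide, 10 μM ATP, 60 min, 22 °C, after 15 min compound preincubation with His6-Bub1 (704-1085, insect-expressed, ~200 ng/ml).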
On the technique in general: TR-FRET usually uses a lanthanide donor and a delayed reading to cut background.
With `Cc1nsc(Nc2ccc(C#N)cn2)c1C(=O)Nc1ccc(OC2CCN(CCF)CC2)nc1` [Example 29, 5-[(5-Cyanopyridin-2-yl)amino]-N-(6-{[1-(2-fluoroethyl)piperidin-4-yl]oxy}pyridin-3-yl)-3-methyl-1,2-thiazole-4-carboxamide], the IC50 is no less than 20 µM.

`Cc1nsc(Nc2cnc(C(F)(F)F)cn2)c1C(=O)Nc1ccc(O[C@H]2CCN(CC(F)F)C[C@@H]2F)nc1` [Example 362]: the IC50 worked out at 14 µM.

As to `Cc1nsc(Nc2cnc(C(F)(F)F)cn2)c1C(=O)Nc1ccc(O[C@@H]2CCN(CC(F)(F)F)C2)nc1` [Example 380, 3-methyl-N-(6-{[(3R)-1-(2,2,2-trifluoroethyl)pyrrolidin-3-yl]oxy}pyridin-3-yl)-5-{[5-(trifluoromethyl)pyrazin-2-yl]amino}-1,2-thiazole-4-carboxamide], the IC50 is greater than 20 µM.

As to `Cc1nsc(Nc2cnc(C(F)(F)F)cn2)c1C(=O)Nc1ccc(O[C@@H]2CCCN(CC(F)(F)F)C2)nc1` [Example 386, 3-methyl-N-(6-{[(3R)-1-(2,2,2-trifluoroethyl)piperidin-3-yl]oxy}pyridin-3-yl)-5-{[5-(trifluoromethyl)pyrazin-2-yl]amino}-1,2-thiazole-4-carboxamide], the IC50 was greater than 20 µM.

For `Cc1nsc(Nc2cnc(C(F)(F)F)cn2)c1C(=O)Nc1ccc(OCC2CCN(CC(F)F)CC2)nc1` [Example 345, N-(6-{[1-(2,2-difluoroethyl)piperidin-4-yl]methoxy}pyridin-3-yl)-3-methyl-5-{[5-(trifluoromethyl)pyrazin-2-yl]amino}-1,2-thiazole-4-carboxamide], the IC50 is no less than 20 µM.

Take `Cc1nsc(Nc2cnc(C(F)(F)F)cn2)c1C(=O)Nc1ccc(F)c(OC[C@H]2CCN(CCC(F)(F)F)C2)c1` [Example 399, N-(4-fluoro-3-{[(3S)-1-(3,3,3-trifluoropropyl)pyrrolidin-3-yl]methoxy}phenyl)-3-methyl-5-{[5-(trifluoromethyl)pyrazin-2-yl]amino}-1,2-thiazole-4-carboxamide]: the IC50 was greater than 20 µM.

In the case of `Cc1nsc(Nc2cnc3ccccc3n2)c1C(=O)Nc1ccc(OC2CCCNC2)nc1` (stereo not drawn) [Example 32, 3-Methyl-N-[6-(piperidin-3-yloxy)pyridin-3-yl]-5-(quinoxalin-2-ylamino)-1,2-thiazole-4-carboxannide], the IC50 is no less than 20 µM.

As for `Cc1nsc(Nc2cnc(C(F)(F)F)cn2)c1C(=O)Nc1ccc(OC[C@@H]2CCCN(CC(F)F)C2)nc1` [Example 375, N-(6-{[(3R)-1-(2,2-difluoroethyl)piperidin-3-yl]methoxy}pyridin-3-yl)-3-methyl-5-{[5-(trifluoromethyl)pyrazin-2-yl]amino}-1,2-thiazole-4-carboxamide], the IC50 is greater than 20 µM.

On to `Cc1nsc(Nc2cnc(C(F)(F)F)cn2)c1C(=O)Nc1ccc(OCC2CCCN(CCC(F)(F)F)C2)nc1` (stereo not drawn) [Example 328, 3-methyl-5-{[5-(trifluoromethyl)pyrazin-2-yl]amino}-N-(6-{[1-(3,3,3-trifluoropropyl)piperidin-3-yl]methoxy}pyridin-3-yl)-1,2-thiazole-4-carboxamide], for which the IC50 is no less than 20 µM.

On to `Cc1nsc(Nc2cnc(C(F)(F)F)cn2)c1C(=O)Nc1ccc(O[C@@H]2CCN(CC(F)(F)F)C[C@H]2F)nc1` [Example 367, N-(6-{[(3R,4R)-3-fluoro-1-(2,2,2-trifluoroethyl)piperidin-4-yl]oxy}pyridin-3-yl)-3-methyl-5-{[5-(trifluoromethyl)pyrazin-2-yl]amino}-1,2-thiazole-4-carboxamide], for which the IC50 is greater than 20 µM.

`CCCN1CC[C@H](Oc2ccc(NC(=O)c3c(C)nsc3Nc3cnc(C(F)(F)F)cn3)cn2)[C@@H](F)C1` [Example 370, N-(6-{[(3S,4S)-3-fluoro-1-propylpiperidin-4-yl]oxy}pyridin-3-yl)-3-methyl-5-{[5-(trifluoromethyl)pyrazin-2-yl]amino}-1,2-thiazole-4-carboxamide]: the IC50 was greater than 20 µM.

As to `Cc1nsc(Nc2cnc(C(F)(F)F)cn2)c1C(=O)Nc1ccc(OCC2CCN(CC(F)(F)F)CC2)nc1` [Example 346, 3-methyl-N-(6-{[1-(2,2,2-trifluoroethyl)piperidin-4-yl]methoxy}pyridin-3-yl)-5-{[5-(trifluoromethyl)pyrazin-2-yl]amino}-1,2-thiazole-4-carboxamide], the IC50 is no less than 20 µM.

On to `Cc1nsc(Nc2cnc(C(F)(F)F)cn2)c1C(=O)Nc1ccc(OCC2CCCN(CC(F)(F)F)C2)nc1` (stereo not drawn) [Example 326, 3-methyl-N-(6-{[1-(2,2,2-trifluoroethyl)piperidin-3-yl]methoxy}pyridin-3-yl)-5-{[5-(trifluoromethyl)pyrazin-2-yl]amino}-1,2-thiazole-4-carboxamide], for which the IC50 is no less than 20 µM.

As to `Cc1nsc(Nc2cnc(C(F)(F)F)cn2)c1C(=O)Nc1ccc(N2CCN(CC(F)(F)F)CC2)cn1` [Example 373, 3-methyl-N-{5-[4-(2,2,2-trifluoroethyl)piperazin-1-yl]pyridin-2-yl}-5-{[5-(trifluoromethyl)pyrazin-2-yl]amino}-1,2-thiazole-4-carboxamide], the IC50 is greater than 20 µM.

On to `Cc1nsc(Nc2cnc(C(F)(F)F)cn2)c1C(=O)Nc1ccc(OC2CCCN(CCC(F)(F)F)C2)nc1` (stereo not drawn) [Example 332, 3-methyl-5-{[5-(trifluoromethyl)pyrazin-2-yl]amino}-N-(6-{[1-(3,3,3-trifluoropropyl)piperidin-3-yl]oxy}pyridin-3-yl)-1,2-thiazole-4-carboxamide], for which the IC50 is no less than 20 µM.

Turning to `Cc1nsc(Nc2cnc(C(F)(F)F)cn2)c1C(=O)Nc1ccc(OC2CCCN(CC(F)(F)F)C2)nc1` (stereo not drawn) [Example 331, 3-methyl-N-(6-{[1-(2,2,2-trifluoroethyl)piperidin-3-yl]oxy}pyridin-3-yl)-5-{[5-(trifluoromethyl)pyrazin-2-yl]amino}-1,2-thiazole-4-carboxamide], the IC50 was no less than 20 µM.

With `Cc1nsc(Nc2cnc(C(F)(F)F)cn2)c1C(=O)Nc1ccc(OC2CCCN(CC(F)F)C2)nc1` (stereo not drawn) [Example 330, N-(6-{[1-(2,2-difluoroethyl)piperidin-3-yl]oxy}pyridin-3-yl)-3-methyl-5-{[5-(trifluoromethyl)pyrazin-2-yl]amino}-1,2-thiazole-4-carboxamide], the IC50 is no less than 20 µM.

With `Cc1nsc(Nc2cnc(C(F)(F)F)cn2)c1C(=O)Nc1ccc(O[C@@H]2CCCN(CCC(F)(F)F)C2)nc1` [Example 387, 3-methyl-5-{[5-(trifluoromethyl)pyrazin-2-yl]amino}-N-(6-{[(3R)-1-(3,3,3-trifluoropropyl)piperidin-3-yl]oxy}pyridin-3-yl)-1,2-thiazole-4-carboxamide], the IC50 was greater than 20 µM.

As for `Cc1nsc(Nc2cnc(C(F)(F)F)cn2)c1C(=O)Nc1ccc(OCC2CCCN(CC(F)F)C2)nc1` (stereo not drawn) [Example 327, N-(6-{[1-(2,2-difluoroethyl)piperidin-3-yl]methoxy}pyridin-3-yl)-3-methyl-5-{[5-(trifluoromethyl)pyrazin-2-yl]amino}-1,2-thiazole-4-carboxamide], the IC50 was no less than 20 µM.

`Cc1nsc(Nc2cnc(C(F)(F)F)cn2)c1C(=O)Nc1ccc(F)c(OC[C@@H]2CCN(CCC(F)(F)F)C2)c1` [Example 340, N-(4-fluoro-3-{[(3R)-1-(3,3,3-trifluoropropyl)pyrrolidin-3-yl]methoxy}phenyl)-3-methyl-5-{[5-(trifluoromethyl)pyrazin-2-yl]amino}-1,2-thiazole-4-carboxamide]: the IC50 was greater than 20 µM.

Turning to `CCCCN1CCC(COc2ccc(NC(=O)c3c(C)nsc3Nc3cnc(C(F)(F)F)cn3)cn2)C(F)(F)C1` (stereo not drawn) [Example 396, N-{6-[(1-butyl-3,3-difluoropiperidin-4-yl)methoxy]pyridin-3-yl}-3-methyl-5-{[5-(trifluoromethyl)pyrazin-2-yl]amino}-1,2-thiazole-4-carboxamide], the IC50 is greater than 20 µM.

In the case of `Cc1nsc(Nc2cnc(C(F)(F)F)cn2)c1C(=O)Nc1ccc(OC2CCCN(CCF)C2)nc1` (stereo not drawn) [Example 329, N-(6-{[1-(2-fluoroethyl)piperidin-3-yl]oxy}pyridin-3-yl)-3-methyl-5-{[5-(trifluoromethyl)pyrazin-2-yl]amino}-1,2-thiazole-4-carboxamide], the IC50 is no less than 20 µM.

Turning to `Cc1nsc(Nc2cnc(C(F)(F)F)cn2)c1C(=O)Nc1ccc(OCCN(C)CCC(F)(F)F)nc1` [Example 351, 3-methyl-N-(6-{2-[methyl(3,3,3-trifluoropropyl)amino]ethoxy}pyridin-3-yl)-5-{[5-(trifluoromethyl)pyrazin-2-yl]amino}-1,2-thiazole-4-carboxamide], the IC50 was no less than 20 µM.

Turning to `Cc1nsc(Nc2cnc(C(F)(F)F)cn2)c1C(=O)Nc1ccc(F)c(OC[C@@H]2CCCN(CCC(F)(F)F)C2)c1` [Example 395, N-(4-fluoro-3-{[(3R)-1-(3,3,3-trifluoropropyl)piperidin-3-yl]methoxy}phenyl)-3-methyl-5-{[5-(trifluoromethyl)pyrazin-2-yl]amino}-1,2-thiazole-4-carboxamide], the IC50 was greater than 20 µM.

Take `Cc1nsc(Nc2ccc(C#N)cn2)c1C(=O)Nc1ccc(OC2CCNCC2)nc1` [Example 28, 5-[(5-Cyanopyridin-2-yl)amino]-3-methyl-N-[6-(piperidin-4-yloxy)pyridin-3-yl]-1,2-thiazole-4-carboxannide]: the IC50 is no less than 20 µM.

Turning to `Cc1nsc(Nc2cnc(C(F)(F)F)cn2)c1C(=O)Nc1ccc(N2CCN(CC(F)(F)F)CC2)nc1` [Example 360, 3-methyl-N-{6-[4-(2,2,2-trifluoroethyl)piperazin-1-yl]pyridin-3-yl}-5-{[5-(trifluoromethyl)pyrazin-2-yl]amino}-1,2-thiazole-4-carboxamide], the IC50 was greater than 20 µM.

In the case of `CCN1CCC(COc2ccc(NC(=O)c3c(C)nsc3Nc3cnc(C(F)(F)F)cn3)cn2)C(F)(F)C1` (stereo not drawn) [Example 393, N-{6-[(1-ethyl-3,3-difluoropiperidin-4-yl)methoxy]pyridin-3-yl}-3-methyl-5-{[5-(trifluoromethyl)pyrazin-2-yl]amino}-1,2-thiazole-4-carboxamide], the IC50 was greater than 20 µM.
